Positions of bridges follow the written chain, without caps; N, C: chain ends. Non-standard residues stand in square brackets, D forms with d. Residues, ends and D or L forms follow the SMILES beside them. Chains are numbered I, II in the order given. No end group written: not given here. Ahx = NCCCCCC(=O)O
Legend:
[1] = system: cell binding; experiment: Competitive blocking of cell binding to LA2; format: cell-based; conditions: binding not eliminated by either agent individually
[2] = system: C2C12 cells; experiment: Attachment of C2C12 cells to coated polystyrene; format: cell-based, murine
Protocol: FIG. 1. Microphotographs of C2C12 cell on LA2 polystyrene. Murine myoblast C2C12 cells were seeded on uncoated polystyrene (A), or polystyrene coated 0.05-(B), 0.2-(C), and 0.4 (D) μg/ml LA2. Three hours after cell seeding, the materials were washed with PBS and micrographs taken with phase contrast optics. Original magnification 200×.
FIG. 2. Attachment of C2C12 cells to LA2 or SIKVAV (SEQ ID NO:16) coated polystyrene. C2C12 cells were seeded on polystyrene surface coated with LA2 (A) or SIKVAV (SEQ ID NO:16) (B). Three hours after seeding, unbound cells were removed by rinsing, and relative cell number determined using a fluorescent assay as described.
Cells Adhesion and Proliferation on LA2 coated surfaces. To evaluate the effects of LA2-coating on cell attachment, untreated polystyrene 96-well plates were coated with LA2 in concentration indicated in figures. […] Cell number on the surface was determined using CyQuant® cell Proliferation Kit (Molecular Probes, Eugene, Oreg.). To detect cell adhesion on the titanium and ePTFE surfaces, cells were fixed with 4% buffered formalin and stained with bis-benzamide, viewed using fluorescence microscopy, and images recorded on digital media. […] After incubation of 3 hours, 3 and 7 days, the EVA films were transferred to a new 96-well plate and cell number on the film was determined using CyQuant® cell Proliferation Kit.

[3] = system: RMEC cells; format: cell-based, rat; conditions: for increase in percentage cells bound on polystyrene: 0.1 μg/ml, two hours, as a percentage of uncoated controls; for cell binding to the polystyrene surface: RMEC cells, versus uncoated controls
Protocol: Cells Adhesion and Proliferation on LA2 coated surfaces. To evaluate the effects of LA2-coating on cell attachment, untreated polystyrene 96-well plates were coated with LA2 in concentration indicated in figures. In the cases of EVA films, ePTFE and titanium, the materials were placed in 48- or 96-well plate and coated with 2 μg/ml of LA2. Cell suspension in density of 1×10^6/ml was added to the wells. […] Cell number on the surface was determined using CyQuant® cell Proliferation Kit (Molecular Probes, Eugene, Oreg.). To detect cell adhesion on the titanium and ePTFE surfaces, cells were fixed with 4% buffered formalin and stained with bis-benzamide, viewed using fluorescence microscopy, and images recorded on digital media. In the cell proliferation studies, EVA films (6.5 mm diameter), similar to those used in the cell adhesion studies, were coated with 2 μg LA2/ml. The coated films were placed in untreated polystyrene 96-well plate and A7R5 cell suspension in density of 1×10^5/ml was added to the wells. After incubation of 3 hours, 3 and 7 days, the EVA films were transferred to a new 96-well plate and cell number on the film was determined using CyQuant® cell Proliferation Kit.
YIGSR is a different laminin adhesion sequence that has been used to increase cell attachment to device surfaces. […] Since cells could bind to LA2 via cell surface heparan sulfate, the heparin binding domain of LA2 was blocked by coating peptide on substrate-adsorbed heparin.

[4] = system: Male SD rats; experiment: Tissue integration of LA2-coated ePTFE in rat subcutaneous implant model; format: in vivo; conditions: two weeks after implant
Protocol: Tissue integration of LA2-coated material in rat implant model. Male SD rats were anesthetized using an intraperitoneal administration of ketamine (40 mg/kg) and xylazine (5 mg/kg). Excess hair was removed and sterile surgical sites were prepared on the lower back. Subcutaneous pouches, approximately 3 cm long, were made through a skin incision using a hemostat and blunt dissection. A wafer (1×1.5 cm) of porous ePTFE was introduced into a subcutaneous pouch. The pouches were positioned on the upper flanks on either side of the backbone, with one wafer coated with MD LA2 and the other wafer uncoated. After the implant, the incision was closed with stainless steel surgical clips. Animals were assigned to experiment groups randomly. Each animal received bilateral subcutaneous implants. There were 8 implant sites for each treatment. After 14 days, animals were euthanized and the ePTFE implants were surgically recovered and processed for subsequent staining with hemotoxylin and eosin.
We hypothesized that ePTFE coated with LA2 would display improved tissue integration. […] In this analysis, the depth of tissue penetration was monitored by histomorphometric methods and scored on a scale of 1-4 (in 25% increments).

[5] = system: cell attachment; experiment: Related cell binding assays comparing coatings (cell type not stated); format: cell-based; conditions: coating

heparin
level of cell binding when used as competitive blocking agent [1]: reduced the level of cell binding

SIKVAV (Cellular attachment peptide sequence)
coating concentration required to achieve the same levels of cell attachment ([2]; C2C12, polystyrene (FIG. 2)): 100 µg/mL
cell attachment compared to uncoated polystyrene ([2]; C2C12 cells, coated polystyrene, 3 hours): able to increase cell attachment
level of cell binding when used as competitive blocking agent [1]: reduced the level of cell binding

CC[C@H](C)[C@H](NC(=O)[C@H](CCCNC(=N)N)NC(=O)[C@H](CCC(=O)O)NC(=O)[C@H](CC(C)C)NC(=O)[C@H](CCCCN)NC(=O)[C@H](CCCNC(=N)N)NC(=O)[C@H](CCCCN)NC(=O)[C@H](CCCNC(=N)N)NC(=O)CCCCCNC(=O)CCCCCNC(=O)CCCCCNC(=O)[C@H](CCCCNC(=O)[C@H](C)NC(=O)[C@H](C)NC(=O)[C@@H](NC(=O)[C@H](C)NC(=O)[C@@H](NC(=O)[C@H](CCCCN)NC(=O)[C@@H](NC(=O)[C@@H](N)CO)[C@@H](C)CC)C(C)C)C(C)C)NC(=O)[C@H](C)NC(=O)[C@H](C)NC(=O)[C@@H](NC(=O)[C@H](C)NC(=O)[C@@H](NC(=O)[C@H](CCCCN)NC(=O)[C@@H](NC(=O)[C@@H](N)CO)[C@@H](C)CC)C(C)C)C(C)C)C(=O)N[C@@H](C)C(=O)N[C@@H](CCCNC(=N)N)C(N)=O [LA2, H-SIKVAVAAK(H-SIKVAVAA)-Ahx-Ahx-Ahx-RKRKLERIAR-NH2] (I: H-SIKVAVAAK[Ahx][Ahx][Ahx]RKRKLERIAR-NH2 / II: H-SIKVAVAA; amide I:9-II:C)
increase in percentage cells bound on polystyrene [3]: over 150%
inflammation [4]: little evidence of inflammation

SEQ ID NO:26 (DTAYKDWPNLFREIR; Random sequence)
cell binding to the polystyrene surface [3]: did not support cell binding

H-YIGSRAAK(H-YIGSRAA)-Ahx-Ahx-Ahx-RKRKLERIAR-NH2 (chain 1 H-YIGSRAAK[Ahx][Ahx][Ahx]; also: branched: chain 2 on Lys8 side chain of chain 1, chain 1 C-terminus joined to chain 3 N-terminus via Ahx-Ahx-Ahx) [MD Peptide 2, similar multi-domain peptide containing YIGSR]
increase in percentage cells bound on polystyrene [3]: over 50%
cell binding to the polystyrene surface [3]: substantially more effective than uncoated controls
cell attachment versus linear SIKVAV, dimerized SIKVAV and random-sequence peptides [5]: more effective

SEQ ID NO:25 (KPVSLSYRAPARFFESHVA; Random sequence)
cell binding to the polystyrene surface [3]: did not support cell binding

Source: patent publication US7820172B1, “Laminin-derived multi-domain peptides” (BioSurface Engineering Technologies, Inc., priority 2006, dated 2010)
